Source: ChEMBL document CHEMBL1129186, “Synthesis of new non-nucleoside inhibitors of HIV-1” (Bioorg Med Chem Lett, 1996)

Legend:
CEM-SS [1] = test: Compound was evaluated for cytotoxicity against CEM SS cells infected with HIV-1(LAI strain).; format: functional; settings: Homo sapiens
CEM-SS [2] = test: Compound was evaluated for antiviral activity against CEM SS cells infected with HIV-1(LAI strain).; format: functional, cell-based; settings: Homo sapiens

Compound	IC50 (CEM-SS [2]) [µM]	CC50 (CEM-SS [1]) [µM]
CC(=O)OCCCc1cc(Sc2cc(C)cc(C)c2)c([N+](=O)[O-])c(O)n1	1	> 1
Cc1cn([C@H]2C[C@H](N=[N+]=[N-])[C@@H](CO)O2)c(=O)[nH]c1=O [ZIDOVUDINE]	3	> 10
Cc1cc(C)cc(Sc2cc(CCCO)nc(O)c2[N+](=O)[O-])c1	8	> 1

Continued, in another order:

IC50 (CEM-SS [2]) [µM]	Compound	CC50 (CEM-SS [1]) [µM]
8	CCc1c(C)nc(Cl)c([N+](=O)[O-])c1Sc1cc(C)cc(C)c1	> 1
3	CCc1c(C)nc(Cl)c([N+](=O)[O-])c1[S+]([O-])c1cc(C)cc(C)c1 (configuration not stated)	8
6	CCc1c(C)nc(O)c([N+](=O)[O-])c1Sc1cc(C)cc(C)c1	> 10
